In patent US10413593B2 (priority 2014, dated 2019):
*1 amine or outer side, *2 acyl side, *3 side chain or, on linkers, in order; H or OH if unused. Where a SMILES comes first, the peptide text is derived from it. Where no end group is shown, it is not given here. Side-chain parts run from the residue outwards. [ ]: non-standard residue; d: D form. The star is where a group is joined. C16 = palmitoyl, CCCCCCCCCCCCCCCC(=O)*; γGlu = O=C(O)[C@H](CCC(=O)[*:2])N[*:1]; X1 = O=C(C(N[*:1])C(O)c1ccccc1)[*:2]; Palmitoyl = CCCCCCCCCCCCCCCC(=O)*

Columns and labels:
[1] = Ambient glucose in DIO mice (Example 21, FIG. 4); assay type: in vivo, mice (strain C57Bl6/NTac); conditions: for change in ambient glucose compared to vehicle: day 9 of dosing
Description: In addition to cumulative body weight change, ambient glucose levels of the DIO mice (strain C57Bl6/NTac) were measured periodically throughout the study.

[2] = Cumulative body weight change in DIO mice, daily s.c. dosing for nine days (Example 18, FIG. 1); assay type: in vivo, mice (strain C57Bl6/NTac); conditions: 9 nmol/kg s.c. daily, day 9
Description: Mice were administered a vehicle control or a dose of a peptide daily for nine days. […] The peptide of SEQ ID NO: 9 was administered at doses of 9 and 25 nmol/kg. Cumulative body weight change (grams) was measured each day of the study except on day 3. Results are shown in FIG. 1 and are expressed as mean±SEM.

[3] = Second study in DIO mice: body weight change percent relative to vehicle (Example 19, FIG. 2); assay type: in vivo, mice (strain C57Bl6/NTac); conditions: eight days
Description: In addition, the peptide of SEQ ID NO: 8 was administered at 15 nmol/kg, while the peptide of SEQ ID NOs: 10 and 11 were administered at 3 nmol/kg. Body weight was measured daily for eight days and body weight change is expressed as percent relative to vehicle (FIG. 2).

human GCGR = target: T1, human GCGR (Homo sapiens, UniProt P47871); assay: cAMP assay in cells expressing human GCGR (HitHunter cAMP XS); assay type: cell-based; conditions: for hGCGR/hGLP1R (hTone): ratio of EC50 at human GCGR to EC50 at human GLP1R; for EC50: cAMP production, cells expressing human GCGR, assay buffer with 20% human serum, 1 hour
T1 construct: expressed in transfected cells
Description: The cAMP protocol was as follows.
(§1) Peptides were dissolved in 100% DMSO and serially diluted to generate 11 point titrations. The peptide solutions were then transferred into 384-well assay plates (150 nL/well). Assay ready frozen cells expressing human GLP-1R or human GCGR were suspended in growth media consisting of DMEM/F12 medium (GIBCO), 10% FBS (GIBCO), lx P/S (GIBCO), 800 μg/mL Geneticin (GIBCO), and 300 μg/mL Hygromycin (Invitrogen). Cells were then diluted in assay buffer consisting of PBS (GIBCO), 7.5% BSA (Perkin Elmer), 100 μM RO 20-1724 (Sigma), and 20% human serum (MP Biomedical). The cell suspensions (15 μL) were then added to the assay plates containing the peptide solutions (30,000 cells/well for human GCGR; 20,000 cells/well for GLP1R). The cells were incubated for 1 hour at room temperature in the dark. Production of cAMP was determined using HitHunter™ cAMPXS kits (DiscoverX). ED buffer (20 μL) was then added to each well and the plates were incubated for 1 hour at room temperature in the dark. Subsequently, EA buffer (20 μL) was added to each well, and the plates were incubated for 1-18 hours at room temperature in the dark. Luminescence was measured using an EnVision Multilabel plate reader (Perkin Elmer). EC50 values were calculated using ADA data analyzer software.

human GLP-1R = target: T2, human GLP-1R (Homo sapiens, UniProt P43220); assay: cAMP assay in cells expressing human GLP-1R (HitHunter cAMP XS); assay type: cell-based; conditions: cAMP production, assay buffer with 20% human serum, 1 hour, read-out: GLPR1 EC50 (nM) human
T2 construct: expressed in transfected cells
T2 sequence (P43220 24-463): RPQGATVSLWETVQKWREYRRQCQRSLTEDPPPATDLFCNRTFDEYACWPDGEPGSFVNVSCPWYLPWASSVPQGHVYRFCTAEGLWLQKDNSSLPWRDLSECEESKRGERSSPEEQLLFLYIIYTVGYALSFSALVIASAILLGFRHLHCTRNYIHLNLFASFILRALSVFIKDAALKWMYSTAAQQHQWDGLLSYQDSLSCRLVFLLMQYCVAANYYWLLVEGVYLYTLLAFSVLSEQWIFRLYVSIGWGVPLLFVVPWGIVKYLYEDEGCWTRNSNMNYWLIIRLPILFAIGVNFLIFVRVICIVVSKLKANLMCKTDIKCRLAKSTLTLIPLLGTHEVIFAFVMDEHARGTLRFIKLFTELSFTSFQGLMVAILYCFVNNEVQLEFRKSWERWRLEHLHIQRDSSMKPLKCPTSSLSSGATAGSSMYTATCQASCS
Description: The cAMP protocol was as follows.
as §1

T1 sequence (P47871 26-477): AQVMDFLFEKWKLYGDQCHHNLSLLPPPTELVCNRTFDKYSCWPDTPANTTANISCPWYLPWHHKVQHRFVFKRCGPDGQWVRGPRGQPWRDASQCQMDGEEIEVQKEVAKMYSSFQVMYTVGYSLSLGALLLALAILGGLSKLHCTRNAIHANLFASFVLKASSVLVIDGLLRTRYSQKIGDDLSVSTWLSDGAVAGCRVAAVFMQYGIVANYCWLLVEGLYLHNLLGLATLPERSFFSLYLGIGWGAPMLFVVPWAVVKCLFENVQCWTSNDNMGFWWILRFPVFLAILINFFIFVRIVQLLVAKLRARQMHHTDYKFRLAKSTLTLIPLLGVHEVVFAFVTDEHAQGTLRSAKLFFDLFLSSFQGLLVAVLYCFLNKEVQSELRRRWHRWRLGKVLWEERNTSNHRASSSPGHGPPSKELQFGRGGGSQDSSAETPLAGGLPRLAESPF

Row | hGCGR/hGLP1R (hTone) (human GCGR) | Compound | body weight loss [2] | weight loss, percent relative to vehicle ([3]; 9 nmol/kg daily) | change in ambient glucose compared to vehicle ([1]; 9 nmol/kg) | further results
1 |  | CCCCCCCCCCCCCCCC(=O)N[C@@H](CCC(=O)NCCCC[C@H](NC(=O)[C@H](CC(=O)O)NC(=O)[C@H](CO)NC(=O)[C@@H](NC(=O)[C@H](Cc1ccccc1)NC(=O)[C@@H](NC(=O)CNC(=O)[C@H](CCC(N)=O)NC(=O)[C@@H](CO)NC(=O)[C@@H](N)Cc1c[nH]cn1)[C@@H](C)O)[C@@H](C)O)C(=O)N[C@@H](CO)C(=O)N[C@@H](CCCCN)C(=O)N[C@@H](Cc1ccc(O)cc1)C(=O)N[C@@H](CC(C)C)C(=O)N[C@@H](CC(=O)O)C(=O)N[C@@H](C)C(=O)N[C@@H](CCCNC(=N)N)C(=O)N[C@@H](C)C(=O)N[C@@H](C)C(=O)N[C@@H](CCC(N)=O)C(=O)N[C@@H](CC(=O)O)C(=O)N[C@@H](Cc1ccccc1)C(=O)N[C@H](C(=O)N[C@@H](CCC(N)=O)C(=O)N[C@@H](Cc1c[nH]c2ccccc12)C(=O)N[C@@H](CC(C)C)C(=O)N[C@@H](CC(C)C)C(=O)N[C@@H](CC(=O)O)C(=O)N[C@H](C(N)=O)[C@@H](C)O)C(C)C)C(=O)O [SEQ ID NO: 6] | 10.5 grams | approximately 20% |  | decrease in ambient glucose compared to vehicle ([1]; 9 nmol/kg, day 7 of dosing): -60 mg/dL
2 |  | CCCCCCCCCCCCCCCC(=O)N[C@@H](CCC(=O)N[C@@H](CCC(=O)NCCCC[C@H](NC(=O)[C@H](CC(=O)O)NC(=O)[C@H](CO)NC(=O)[C@@H](NC(=O)[C@H](Cc1ccccc1)NC(=O)[C@@H](NC(=O)CNC(=O)[C@H](CCC(N)=O)NC(=O)[C@@H](CO)NC(=O)[C@@H](N)Cc1c[nH]cn1)[C@@H](C)O)[C@@H](C)O)C(=O)N[C@@H](CO)C(=O)N[C@@H](CCCCN)C(=O)N[C@@H](Cc1ccc(O)cc1)C(=O)N[C@@H](CC(C)C)C(=O)N[C@@H](CC(=O)O)C(=O)N[C@H](C(=O)N[C@@H](CCCNC(=N)N)C(=O)N[C@@H](C)C(=O)N[C@@H](C)C(=O)N[C@@H](CCC(N)=O)C(=O)N[C@@H](CC(=O)O)C(=O)N[C@@H](Cc1ccccc1)C(=O)N[C@H](C(=O)N[C@@H](CCC(N)=O)C(=O)N[C@@H](Cc1c[nH]c2ccccc12)C(=O)N[C@@H](CC(C)C)C(=O)N[C@@H](CC(C)C)C(=O)N[C@@H](CC(=O)O)C(=O)N[C@H](C(N)=O)[C@@H](C)O)C(C)C)C(C)C)C(=O)O)C(=O)O [SEQ ID NO: 8] | 8 grams | approximately 17% | -72 mg/dL | weight loss, percent relative to vehicle ([3]; 15 nmol/kg daily): approximately 25%
3 |  | CCCCCCCCCCCCCCCC(=O)N[C@@H](CCC(=O)N[C@@H](CCC(=O)NCCCC[C@H](NC(=O)[C@H](CC(=O)O)NC(=O)[C@H](CO)NC(=O)[C@@H](NC(=O)[C@H](Cc1ccccc1)NC(=O)[C@@H](NC(=O)CNC(=O)[C@@H](NC(=O)C(C)(C)NC(=O)[C@@H](N)Cc1c[nH]cn1)C(C)C)[C@@H](C)O)[C@@H](C)O)C(=O)N[C@@H](CO)C(=O)N[C@@H](CCCCN)C(=O)N[C@@H](Cc1ccc(O)cc1)C(=O)N[C@@H](CC(C)C)C(=O)N[C@@H](CC(=O)O)C(=O)NC(C)(C)C(=O)N[C@@H](CCCNC(=N)N)C(=O)N[C@@H](C)C(=O)N[C@@H](C)C(=O)N[C@@H](CCC(N)=O)C(=O)N[C@@H](CC(=O)O)C(=O)N[C@@H](Cc1ccccc1)C(=O)N[C@H](C(=O)N[C@@H](CCC(N)=O)C(=O)N[C@@H](Cc1c[nH]c2ccccc12)C(=O)N[C@@H](CC(C)C)C(=O)N[C@@H](CCCC)C(=O)N[C@@H](CC(=O)O)C(=O)N[C@H](C(N)=O)[C@@H](C)O)C(C)C)C(=O)O)C(=O)O [SEQ ID NO: 9] | ~3 grams | approximately 5% | did not exhibit significant changes in ambient glucose | decrease in ambient glucose compared to vehicle ([1]; 25 nmol/kg, second day of dosing): -75 mg/dL
4 | 0.93 | CCCCCCCCCCCCCCCC(=O)N[C@@H](CCC(=O)N[C@@H](CCC(=O)NCCCC[C@H](NC(=O)[C@H](CC(=O)O)NC(=O)[C@H](CO)NC(=O)[C@@H](NC(=O)[C@H](Cc1ccc(F)cc1)NC(=O)[C@@H](NC(=O)CNC(=O)[C@H](CCC(N)=O)NC(=O)[C@@H](CO)NC(=O)[C@@H](N)Cc1c[nH]cn1)[C@@H](C)O)[C@@H](C)O)C(=O)N[C@@H](CO)C(=O)N[C@@H](CCCCN)C(=O)N[C@@H](Cc1ccc(O)cc1)C(=O)N[C@@H](CC(C)C)C(=O)N[C@@H](CC(=O)O)C(=O)N[C@@H](CCC(=O)O)C(=O)N[C@@H](CCCNC(=N)N)C(=O)N[C@@H](C)C(=O)N[C@@H](C)C(=O)N[C@@H](CCC(N)=O)C(=O)N[C@@H](CC(=O)O)C(=O)N[C@@H](Cc1ccccc1)C(=O)N[C@H](C(=O)N[C@@H](CCC(N)=O)C(=O)N[C@@H](Cc1c[nH]c2ccccc12)C(=O)N[C@@H](CC(C)C)C(=O)N[C@@H](CC(C)C)C(=O)N[C@@H](CC(=O)O)C(=O)N[C@H](C(N)=O)[C@@H](C)O)C(C)C)C(=O)O)C(=O)O [compound 14] |  |  |  | EC50 (human GLP-1R): 0.06 nM; EC50 (human GCGR): 0.05 nM
5 | 1.02 | CCCCCCCCCCCCCCCC(=O)N[C@@H](CCC(=O)N[C@@H](CCC(=O)NCCCC[C@H](NC(=O)[C@H](CC(=O)O)NC(=O)[C@H](CO)NC(=O)[C@@H](NC(=O)C(NC(=O)[C@@H](NC(=O)CNC(=O)[C@H](CCC(N)=O)NC(=O)[C@@H](CO)NC(=O)[C@@H](N)Cc1c[nH]cn1)[C@@H](C)O)C(O)c1ccccc1)[C@@H](C)O)C(=O)N[C@@H](CO)C(=O)N[C@@H](CCCCN)C(=O)N[C@@H](Cc1ccc(O)cc1)C(=O)N[C@@H](CC(C)C)C(=O)N[C@@H](CC(=O)O)C(=O)N[C@@H](CCC(=O)O)C(=O)N[C@@H](CCCNC(=N)N)C(=O)N[C@@H](C)C(=O)N[C@@H](C)C(=O)N[C@@H](CCC(N)=O)C(=O)N[C@@H](CC(=O)O)C(=O)N[C@@H](Cc1ccccc1)C(=O)N[C@H](C(=O)N[C@@H](CCC(N)=O)C(=O)N[C@@H](Cc1c[nH]c2ccccc12)C(=O)N[C@@H](CC(C)C)C(=O)N[C@@H](CC(C)C)C(=O)N[C@@H](CC(=O)O)C(=O)N[C@H](C(N)=O)[C@@H](C)O)C(C)C)C(=O)O)C(=O)O (stereo partly drawn) [compound 19] (H-H[dS]QGT[X1]TSDK([γGlu-γGlu-Palmitoyl])SKYLDERAAQDFVQWLLDT-NH2; N-terminus assumed) |  |  |  | EC50 (human GLP-1R): 1.02 nM; EC50 (human GCGR): 1.04 nM
6 |  | HsQGTFTSDK(γEγEC16)SKYLDVRRAQDFVQWLLDT-NH2 (H[dS]QGTFTSDK([γGlu-γGlu-C16])SKYLDVRRAQDFVQWLLDT-NH2; N-terminus assumed; SMILES CCCCCCCCCCCCCCCC(=O)N[C@@H](CCC(=O)N[C@@H](CCC(=O)NCCCC[C@H](NC(=O)[C@H](CC(=O)O)NC(=O)[C@H](CO)NC(=O)[C@@H](NC(=O)[C@H](Cc1ccccc1)NC(=O)[C@@H](NC(=O)CNC(=O)[C@H](CCC(N)=O)NC(=O)[C@@H](CO)NC(=O)[C@@H](N)Cc1c[nH]cn1)[C@@H](C)O)[C@@H](C)O)C(=O)N[C@@H](CO)C(=O)N[C@@H](CCCCN)C(=O)N[C@@H](Cc1ccc(O)cc1)C(=O)N[C@@H](CC(C)C)C(=O)N[C@@H](CC(=O)O)C(=O)N[C@H](C(=O)N[C@@H](CCCNC(=N)N)C(=O)N[C@@H](CCCNC(=N)N)C(=O)N[C@@H](C)C(=O)N[C@@H](CCC(N)=O)C(=O)N[C@@H](CC(=O)O)C(=O)N[C@@H](Cc1ccccc1)C(=O)N[C@H](C(=O)N[C@@H](CCC(N)=O)C(=O)N[C@@H](Cc1c[nH]c2ccccc12)C(=O)N[C@@H](CC(C)C)C(=O)N[C@@H](CC(C)C)C(=O)N[C@@H](CC(=O)O)C(=O)N[C@H](C(N)=O)[C@@H](C)O)C(C)C)C(C)C)C(=O)O)C(=O)O) [SEQ ID NO: 7] | ~3 grams | approximately 5% | did not exhibit significant changes in ambient glucose | 

Row | Compound | hGCGR/hGLP1R (hTone) (human GCGR) | body weight loss [2] | weight loss, percent relative to vehicle ([3]; 9 nmol/kg daily) | change in ambient glucose compared to vehicle ([1]; 9 nmol/kg) | further results
7 | CCCCCCCCCCCCCCCC(=O)N[C@@H](CCC(=O)N[C@@H](CCC(=O)NCCCC[C@H](NC(=O)[C@H](CC(=O)O)NC(=O)[C@H](CO)NC(=O)[C@@H](NC(=O)[C@H](Cc1ccccc1)NC(=O)[C@@H](NC(=O)CNC(=O)[C@H](CCC(N)=O)NC(=O)[C@H](C)NC(=O)[C@H](Cc1c[nH]cn1)NC(C)=O)[C@@H](C)O)[C@@H](C)O)C(=O)N[C@@H](CO)C(=O)N[C@@H](CCCCN)C(=O)N[C@@H](Cc1ccc(O)cc1)C(=O)N[C@@H](CC(C)C)C(=O)N[C@@H](CC(=O)O)C(=O)N[C@@H](CCC(=O)O)C(=O)N[C@@H](CCCNC(=N)N)C(=O)N[C@@H](C)C(=O)N[C@@H](C)C(=O)N[C@@H](CCC(N)=O)C(=O)N[C@@H](CC(=O)O)C(=O)N[C@@H](Cc1ccccc1)C(=O)N[C@H](C(=O)N[C@@H](CCC(N)=O)C(=O)N[C@@H](Cc1c[nH]c2ccccc12)C(=O)N[C@@H](CC(C)C)C(=O)N[C@@H](CC(C)C)C(=O)N[C@@H](CC(=O)O)C(=O)N[C@H](C(N)=O)[C@@H](C)O)C(C)C)C(=O)O)C(=O)O [compound 12] | 1.00 |  |  |  | 
